Among the data in article doi:10.1101/2023.11.09.566481v1 (biorxiv, 2023) are remaining activity values, retold here.

Where two headings read alike, the source gives them in different places.

Test [1] concerns the target T1, hSirt3^102-399 (Homo sapiens, UniProt Q9NTG7).
T1 sequence (Q9NTG7 102-399): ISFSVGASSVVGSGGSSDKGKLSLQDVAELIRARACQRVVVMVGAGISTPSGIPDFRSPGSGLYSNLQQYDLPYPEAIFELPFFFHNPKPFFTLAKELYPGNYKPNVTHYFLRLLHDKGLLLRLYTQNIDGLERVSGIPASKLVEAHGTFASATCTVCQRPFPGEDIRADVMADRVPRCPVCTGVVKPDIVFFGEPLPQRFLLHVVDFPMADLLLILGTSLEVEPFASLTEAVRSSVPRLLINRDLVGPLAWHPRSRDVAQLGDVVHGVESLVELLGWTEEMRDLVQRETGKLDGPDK
The test can be described thus: biochemical. To be noted: read-out: % Control Steady-state.

Test [2] has as its target T1, hSirt3^102-399. The test can be described thus: biochemical. To be noted: read-out: % Control Non-Steady state.

On to `C=CCc1ccc(O)c(-c2ccc(O)c(CC=C)c2)c1` [Honokiol], for which the remaining activity at 10 µM on hSirt3^102-399 [1] came to 85.9%; on hSirt3^102-399 [2], 110%.
